US20200077658A1, “Pesticidal Compounds” (BASF SE, priority 2016, published 2020)

Experiments:
Assay type in all cases: in vivo
[1] = tested on: Silverleaf Whitefly (Bemisia argentifoli) (Adults); test: Action on silverleaf whitefly (Bemisia argentifoli) adults, sprayed cotton plants; conditions: Bemisia argentifolii, 72 h, 3 days after treatment, read-out: mortality in comparison with untreated controls
Procedure: (§1) The active compounds were formulated by a Tecan liquid handler in 100% cyclohexanone as a 10,000 ppm solution supplied in tubes. The 10,000 ppm solution was serially diluted in 100% cyclohexanone to make interim solutions. These served as stock solutions for which final dilutions were made by the Tecan in 50% acetone:50% water (v/v) into 5 or 10 ml glass vials. A nonionic surfactant (Kinetic®) was included in the solution at a volume of 0.01% (v/v). The vials were then inserted into an automated electrostatic sprayer equipped with an atomizing nozzle for application to plants/insects.
Cotton plants at the cotyledon stage (one plant per pot) were sprayed by an automated electrostatic plant sprayer equipped with an atomizing spray nozzle. The plants were dried in the sprayer fume hood and then removed from the sprayer. Each pot was placed into a plastic cup and about 10 to 12 whitefly adults (approximately 3-5 days old) were introduced. The insects were collected using an aspirator and a nontoxic Tygon® tubing connected to a barrier pipette tip. The tip, containing the collected insects, was then gently inserted into the soil containing the treated plant, allowing insects to crawl out of the tip to reach the foliage for feeding. Cups were covered with a reusable screened lid. Test plants were maintained in a growth room at about […] and about 20-40% relative humidity for 3 days, avoiding direct exposure to fluorescent light (24 hour photoperiod) to prevent trapping of heat inside the cup. Mortality was assessed 3 days after treatment, compared to untreated control plants.

[2] = tested on: boll weevil (Anthonomus grandis); test: Action on boll weevil (Anthonomus grandis), 96-well microtiter plate diet test; conditions: 120 h, egg and larval mortality after 5 days, read-out: mortality in comparison with untreated controls
Procedure: For evaluating control of boll weevil (Anthonomus grandis) the test unit consisted of 96-well-microtiter plates containing an insect diet and 5-10 A. grandis eggs.
The compounds were formulated using a solution containing 75% v/v water and 25% v/v DMSO. Different concentrations of formulated compounds were sprayed onto the insect diet at 5 μl, using a custom built micro atomizer, at two replications.
After application, microtiter plates were incubated at about 25±1° C. and about 75±5% relative humidity for 5 days. Egg and larval mortality was then visually assessed.

[3] = tested on: Southern Armyworm (Spodoptera eridania), 2nd Instar Larvae; test: Action on southern armyworm (Spodoptera eridania), 2nd instar larvae, sprayed lima bean plants; conditions: 96 h, 2nd instar larvae on lima bean, 4 days after treatment, read-out: mortality in comparison with untreated controls
Procedure: as §1, with “into 10” for “into 5”, “or 20” for “or 10”
Lima bean plants (variety Sieva) were grown 2 plants to a pot and selected for treatment at the 1st true leaf stage. Test solutions were sprayed onto the foliage by an automated electrostatic plant sprayer equipped with an atomizing spray nozzle. The plants were dried in the sprayer fume hood and then removed from the sprayer. Each pot was placed into perforated plastic bags with a zip closure. About 10 to 11 armyworm larvae were placed into the bag and the bags zipped closed. Test plants were maintained in a growth room at about 250C and about 20-40% relative humidity for 4 days, avoiding direct exposure to fluorescent light (24 hour photoperiod) to prevent trapping of heat inside the bags. Mortality and reduced feeding were assessed 4 days after treatment, compared to untreated control plants.

[4] = tested on: Diamond Back Moth (Plutella xylostella); test: Action on diamond back moth (Plutella xylostella), cabbage leaf dip; conditions: foliar, 3rd instar larvae on dipped cabbage leaves, 72 hours after treatment, read-out: mortality in comparison with untreated controls
Procedure: The active compound is dissolved at the desired concentration in a mixture of 1:1 (vol:vol) distilled water:acetone. Surfactant (Kinetic® HV) is added at a rate of 0.01% (vol/vol).The test solution is prepared at the day of use.
Leaves of cabbage were dipped in test solution and air-dried. Treated leaves were placed in petri dishes lined with moist filter paper and inoculated with ten 3rd instar larvae. Mortality was recorded 72 hours after treatment. Feeding damages were also recorded using a scale of 0-100%.

[5] = tested on: yellow fever mosquito (Aedes aegypti); test: whole plant or invertebrate; conditions: 48 h, larval mortality visually assessed after 2 days, read-out: mortality in comparison with untreated controls
Procedure: For evaluating control of yellow fever mosquito (Aedes aegypti) the test unit consisted of 96-well-microtiter plates containing 200 μl of tap water per well and 5-15 freshly hatched A. aegypti larvae.
The active compounds were formulated using a solution containing 75% (v/v) water and 25% (v/v) DMSO. Different concentrations of formulated compounds or mixtures were sprayed onto the insect diet at 2.5 μl, using a custom built micro atomizer, at two replications.
After application, microtiter plates were incubated at 28±1° C., 80±5% RH for 2 days. Larval mortality was then visually assessed.

[6] = tested on: Orchid thrips (Dichromothrips corbetti); test: Action on orchid thrips (Dichromothrips corbetti), floral-immersion technique; conditions: adult thrips, mortality 72 hours after treatment, read-out: mortality in comparison with untreated controls
Procedure: Dichromothrips corbetti adults used for bioassay were obtained from a colony maintained continuously under laboratory conditions. For testing purposes, the test compound is diluted in a 1:1 mixture of acetone:water (vol:vol), plus Kinetic® HV at a rate of 0.01% v/v.
Thrips potency of each compound was evaluated by using a floral-immersion technique. All petals of individual, intact orchid flowers were dipped into treatment solution and allowed to dry in Petri dishes. Treated petals were placed into individual re-sealable plastic along with about 20 adult thrips. All test arenas were held under continuous light and a temperature of about 28° C. for duration of the assay. After 3 days, the numbers of live thrips were counted on each petal. The percent mortality was recorded 72 hours after treatment.

[7] = tested on: tobacco budworm (Heliothis virescens); test: Action on tobacco budworm (Heliothis virescens), 96-well microtiter plate diet test; conditions: 120 h, egg and larval mortality after 5 days, read-out: mortality in comparison with untreated controls
Procedure: For evaluating control of tobacco budworm (Helliothis virescens) the test unit consisted of 96-well-microtiter plates containing an insect diet and 15-25 H. virescens eggs.
The compounds were formulated using a solution containing 75% v/v water and 25% v/v DMSO. Different concentrations of formulated compounds were sprayed onto the insect diet at 10 μl, using a custom built micro atomizer, at two replications.
After application, microtiter plates were incubated at about 28±1° C. and about 80±5% relative humidity for 5 days. Egg and larval mortality was then visually assessed.

CC(/C=N/NC(=S)Nc1ccccc1C(C)C)=C\c1cnc(N(C)c2ccc(OC(F)(F)F)cc2)nc1C [Compound C-16, 1-(2-isopropylphenyl)-3-[(E)-[(E)-2-methyl-3-[4-methyl-2-[N-methyl-4-(trifluoromethoxy)anilino]pyrimidin-5-yl]prop-2-enylidene]amino]thiourea]
≥ 75%: mortality at 300 ppm [1] | mortality at 800 ppm [2] | mortality at 300 ppm [3] | mortality at 500 ppm [4] | mortality at 800 ppm [5] | mortality at 500 ppm [6] | mortality at 800 ppm [7]

CC(/C=N/N=C1\SCC(=O)N1c1ccccc1C(C)C)=C\c1cnc(N(C)c2ccc(OC(F)(F)F)cc2)nc1C [Compound C-17, (2Z)-3-(2-isopropylphenyl)-2-[(E)-[(E)-2-methyl-3-[4-methyl-2-[N-methyl-4-(trifluoromethoxy)anilino]pyrimidin-5-yl]prop-2-enylidene]hydrazono]thiazolidin-4-one]
≥ 75%: mortality at 300 ppm [1] | mortality at 800 ppm [2] | mortality at 300 ppm [3] | mortality at 500 ppm [4] | mortality at 800 ppm [5] | mortality at 500 ppm [6] | mortality at 800 ppm [7]

CO[C@@H]1[C@@H](OC)[C@@H](OC)C(O/N=C/C(C)=C/c2cnc(N(C)c3ccc(OC(F)(F)F)cc3)nc2)O[C@H]1C (stereo partly drawn) [Compound C-23, N-methyl-5-[(E,3E)-2-methyl-3-[(3R,4R,5S,6S)-3,4,5-trimethoxy-6-methyl-tetrahydropyran-2-yl]oxyimino-prop-1-enyl]-N-[4-(trifluoromethoxy)phenyl]pyrimidin-2-amine]
≥ 75%: mortality at 300 ppm [1] | mortality at 800 ppm [2] | mortality at 300 ppm [3] | mortality at 500 ppm [4] | mortality at 800 ppm [5] | mortality at 500 ppm [6] | mortality at 800 ppm [7]
